According to PubChem BioAssay AID192 (DTP/NCI, 2004):
Several values for one entry are separate records, joined by “and”; a condition that tells them apart may be missing. Equal values may be shown once. Toxic doses and inconclusive results are not listed.

System: BDF1 mice, B16 melanoma ip, median survival T/C
Experiment: NCI In Vivo Anticancer Drug Screen. Data for tumor model B16 Melanoma (intraperitoneal) in B6D2F1 (BDF1) mice
Conditions: endpoint: median survival time, higher = longer survival
How it was run: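 Transplantable tumor model; survival or tumor size measured; reported as T/C, treated over vehicle control.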

[1] = dose: 6.25 mg/kg/injection, schedule: Q01DX009 (ip), vehicle: saline
[2] = dose: 12.5 mg/kg/injection, schedule: Q01DX009 (ip), vehicle: saline
[3] = dose: 25.0 mg/kg/injection, schedule: Q01DX009 (ip), vehicle: saline
[4] = dose: 50.0 mg/kg/injection, schedule: Q01DX009 (ip), vehicle: saline
[5] = dose: 100.0 mg/kg/injection, schedule: Q01DX009 (ip), vehicle: saline with Tween-80
[6] = dose: 100.0 mg/kg/injection, schedule: Q01DX009 (ip), vehicle: Klucel (hydroxypropylcellulose) (HPC)
[7] = dose: 200.0 mg/kg/injection, schedule: Q01DX009 (ip), vehicle: Klucel (hydroxypropylcellulose) (HPC)
[8] = dose: 25.0 mg/kg/injection, schedule: Q01DX009 (ip), vehicle: saline with Tween-80
[9] = dose: 50.0 mg/kg/injection, schedule: Q01DX009 (ip), vehicle: saline with Tween-80
[10] = dose: 50.0 mg/kg/injection, schedule: Q01DX009 (ip), vehicle: Klucel (hydroxypropylcellulose) (HPC)
[11] = dose: 100.0 mg/kg/injection, schedule: Q04DX003 (ip), vehicle: Klucel (hydroxypropylcellulose) (HPC)
[12] = dose: 200.0 mg/kg/injection, schedule: Q04DX003 (ip), vehicle: Klucel (hydroxypropylcellulose) (HPC)

What does the source list for `CCc1ccc2c(c1)N(CCCN(CCCl)CCCl)c1ccccc1S2`?
T/C (dose: 1.56 mg/kg/injection, schedule: Q01DX009 (ip), vehicle: saline with Tween-80): 114 % of control; T/C (dose: 1.56 mg/kg/injection, schedule: Q04DX003 (ip), vehicle: saline with Tween-80): 87 % of control; T/C (dose: 3.12 mg/kg/injection, schedule: Q01DX009 (ip), vehicle: saline with Tween-80): 92 % of control and 123 % of control; T/C (dose: 3.12 mg/kg/injection, schedule: Q04DX003 (ip), vehicle: saline with Tween-80): 110 % of control; T/C (dose: 6.25 mg/kg/injection, schedule: Q01DX009 (ip), vehicle: saline with Tween-80): 111 % of control and 117 % of control; T/C (dose: 6.25 mg/kg/injection, schedule: Q04DX003 (ip), vehicle: saline with Tween-80): 105 % of control; T/C (dose: 12.5 mg/kg/injection, schedule: Q04DX003 (ip), vehicle: saline with Tween-80): 112 % of control; T/C (dose: 25.0 mg/kg/injection, schedule: Q04DX003 (ip), vehicle: saline with Tween-80): 115 % of control

For `CN(C)CC/C=C1\c2ccccc2CN(C)c2ccccc21`, which T/C [1] is on record?
The T/C was 102 % of control.

What about the T/C [2] of the same molecule?
Its T/C is 107 % of control.

What about the T/C [3] of the same molecule?
Its T/C is 94 % of control.

What about the T/C [4] of the same molecule?
Its T/C is 99 % of control.

Which results are given for `c1ccc([I+]c2ccccc2)cc1`?
T/C (dose: 1.0 mg/kg/injection, schedule: Q01DX009 (ip), vehicle: saline + Tween-80 + alcohol): 103 % of control; T/C (dose: 2.0 mg/kg/injection, schedule: Q01DX009 (ip), vehicle: saline + Tween-80 + alcohol): 97 % of control; T/C (dose: 4.0 mg/kg/injection, schedule: Q01DX009 (ip), vehicle: saline + Tween-80 + alcohol): 108 % of control; T/C (dose: 6.0 mg/kg/injection, schedule: Q01DX009 (sc), vehicle: olive oil, sesame oil, peanut oil): 100 % of control

With `CC(C)C(Br)C(=O)NC(Cc1ccccc1)C(=O)O` (stereo not drawn) as the molecule, how does the T/C [5] read?
The T/C was 104 % of control.

And the T/C (dose: 200.0 mg/kg/injection, schedule: Q01DX009 (ip), vehicle: saline with Tween-80)?
The T/C was 95 % of control.

Which T/C [6] does the source give for `Cc1cc(C)c(NC(=O)c2cccc(C(=O)Nc3c(C)cc(C)cc3C)c2)c(C)c1` here?
The T/C was 93 % of control.

What about the T/C [7] of the same molecule?
The T/C was 86 % of control.

What about the T/C (dose: 400.0 mg/kg/injection, schedule: Q01DX009 (ip), vehicle: Klucel (hydroxypropylcellulose) (HPC)) of the same molecule?
Its T/C is 90 % of control.

For `O=C(Nc1cccc(C(F)(F)F)c1)c1ccc(C(=O)Nc2cccc(C(F)(F)F)c2)cc1`, which T/C [8] is on record?
Its T/C is 205 % of control.

And the T/C [9]?
Its T/C is 184 % of control.

And the T/C [5]?
Its T/C is 90 % of control.

For `CC1=CCC2(C)C(=O)CC3(C)C(CCC4C5(C)CCC(=O)C(C)(C)C5CCC43C)C2C1C` (stereo not drawn), which T/C (dose: 1.75 mg/kg/injection, schedule: Q01DX008 (ip), vehicle: saline) is on record?
The T/C was 100 % of control.

And the T/C (dose: 3.5 mg/kg/injection, schedule: Q01DX008 (ip), vehicle: saline)?
Its T/C is 100 % of control.

And the T/C (dose: 7.0 mg/kg/injection, schedule: Q01DX008 (ip), vehicle: saline)?
Its T/C is 94 % of control.

And the T/C (dose: 14.0 mg/kg/injection, schedule: Q01DX008 (ip), vehicle: saline)?
Its T/C is 99 % of control.

For `COc1cc2c(cc1OC)C1CC(=O)C(CC(C)C)CN1CC2` (stereo not drawn), which T/C (dose: 6.25 mg/kg/injection, schedule: Q01DX009 (ip), vehicle: Klucel (hydroxypropylcellulose) (HPC)) is on record?
The T/C was 100 % of control.

What about the T/C (dose: 25.0 mg/kg/injection, schedule: Q01DX009 (ip), vehicle: Klucel (hydroxypropylcellulose) (HPC)) of the same molecule?
The T/C was 100 % of control.

And the T/C [10]?
Its T/C is 95 % of control.

What about the T/C [6] of the same molecule?
Its T/C is 97 % of control.

Which T/C (dose: 12.5 mg/kg/injection, schedule: Q01DX009 (ip), vehicle: water) does the source give for `O=S(=O)(NC(=S)S)c1ccccc1` here?
The T/C was 91 % of control.

And the T/C (dose: 25.0 mg/kg/injection, schedule: Q01DX009 (ip), vehicle: water)?
Its T/C is 94 % of control.

What about the T/C (dose: 50.0 mg/kg/injection, schedule: Q01DX009 (ip), vehicle: water) of the same molecule?
The T/C was 86 % of control.

With `CCOC(=O)C(CC)c1ccccc1` (stereo not drawn) as the molecule, how does the T/C [9] read?
The T/C was 91 % of control.

What about the T/C [5] of the same molecule?
The T/C was 95 % of control.

With `CS(=O)(=O)OCCC(=O)N1CCN(C(=O)CCOS(C)(=O)=O)CC1` as the molecule, how does the T/C (dose: 1.56 mg/kg/injection, schedule: Q01DX009 (ip), vehicle: suspension in saline) read?
The T/C was 114 % of control.

What about the T/C (dose: 3.12 mg/kg/injection, schedule: Q01DX009 (ip), vehicle: suspension in saline) of the same molecule?
Its T/C is 111 % of control.

And the T/C (dose: 6.25 mg/kg/injection, schedule: Q01DX009 (ip), vehicle: suspension in saline)?
Its T/C is 114 % of control.

And the T/C (dose: 12.5 mg/kg/injection, schedule: Q01DX009 (ip), vehicle: suspension in saline)?
Its T/C is 124 % of control.

What about the T/C [8] of the same molecule?
Its T/C is 150 % of control.

And the T/C [9]?
Its T/C is 152 % of control and 170 % of control.

What about the T/C (dose: 50.0 mg/kg/injection, schedule: Q01DX009 (ip), vehicle: suspension in saline) of the same molecule?
Its T/C is 171 % of control.

What about the T/C [5] of the same molecule?
Its T/C is 160 % of control.

How did the T/C (dose: 12.5 mg/kg/injection, schedule: Q04DX003 (ip), vehicle: saline) turn out when `Cc1noc(C)c1CON` was run?
The T/C was 118 % of control.

What about the T/C (dose: 25.0 mg/kg/injection, schedule: Q04DX003 (ip), vehicle: saline) of the same molecule?
The T/C was 118 % of control.

And the T/C (dose: 50.0 mg/kg/injection, schedule: Q04DX003 (ip), vehicle: saline)?
The T/C was 123 % of control.

Which results are given for `NNC(=O)c1ccncc1`?
T/C [2]: 111 % of control; T/C (dose: 16.0 mg/kg/injection, schedule: Q01DX009 (ip), vehicle: saline): 98 % of control; T/C [3]: 100 % of control; T/C (dose: 32.0 mg/kg/injection, schedule: Q01DX009 (ip), vehicle: saline): 98 % of control; T/C [4]: 105 % of control; T/C (dose: 64.0 mg/kg/injection, schedule: Q01DX009 (ip), vehicle: saline): 100 % of control; T/C (dose: 100.0 mg/kg/injection, schedule: Q01DX009 (ip), vehicle: saline): 111 % of control; T/C (dose: 128.0 mg/kg/injection, schedule: Q01DX009 (ip), vehicle: saline): 90 % of control

With `CCCC(C(=O)OCCN(CC)CC)(c1ccccc1)c1ccccc1` as the molecule, how does the T/C (dose: 3.12 mg/kg/injection, schedule: Q01DX009 (ip), vehicle: saline) read?
The T/C was 95 % of control.

What about the T/C [1] of the same molecule?
Its T/C is 102 % of control.

What about the T/C [2] of the same molecule?
Its T/C is 100 % of control.

And the T/C [3]?
Its T/C is 97 % of control.

`CCN(CC)CCCC(C)Nc1cc(/C=C/c2ccc(Cl)cc2)nc2cc(N(C)C)ccc12` (stereo not drawn) was tested. Which T/C (dose: 12.5 mg/kg/injection, schedule: Q01DX009 (ip), vehicle: Klucel (hydroxypropylcellulose) (HPC)) did it give?
The T/C was 97 % of control.

For `Oc1c(CN2CCCC2)cc(Nc2cc(/C=C/c3ccc(Cl)cc3)nc(/C=C\c3ccc(Cl)cc3)n2)cc1CN1CCCC1`, which T/C (dose: 3.0 mg/kg/injection, schedule: Q04DX003 (ip), vehicle: Klucel (hydroxypropylcellulose) (HPC)) is on record?
Its T/C is 105 % of control.

What about the T/C (dose: 6.0 mg/kg/injection, schedule: Q04DX003 (ip), vehicle: Klucel (hydroxypropylcellulose) (HPC)) of the same molecule?
Its T/C is 97 % of control.

What about the T/C (dose: 12.0 mg/kg/injection, schedule: Q04DX003 (ip), vehicle: Klucel (hydroxypropylcellulose) (HPC)) of the same molecule?
Its T/C is 89 % of control.

Which T/C (dose: 12.5 mg/kg/injection, schedule: Q01DX009 (ip), vehicle: saline with Tween-80) does the source give for `NC(=O)NNc1ccc([N+](=O)[O-])cc1[N+](=O)[O-]` here?
Its T/C is 95 % of control.

And the T/C [8]?
Its T/C is 97 % of control.

What about the T/C [9] of the same molecule?
The T/C was 97 % of control.

Which T/C (dose: 0.78 mg/kg/injection, schedule: Q01DX009 (ip), vehicle: Klucel (hydroxypropylcellulose) (HPC)) does the source give for `CC(=N\O)/C(C)=N/O.CC(=N\O)/C(C)=N/O.CC(=N\O)/C(C)=N/O.CC(=N\O)/C(C)=N/O.[Cu].[Cu]` here?
The T/C was 93 % of control.

What about the T/C (dose: 1.56 mg/kg/injection, schedule: Q01DX009 (ip), vehicle: Klucel (hydroxypropylcellulose) (HPC)) of the same molecule?
The T/C was 103 % of control.

And the T/C (dose: 3.13 mg/kg/injection, schedule: Q01DX009 (ip), vehicle: Klucel (hydroxypropylcellulose) (HPC))?
Its T/C is 103 % of control.

Which T/C [10] does the source give for `O=C(O)c1ccccc1C(=O)Nc1ccc([N+](=O)[O-])cc1Cl` here?
The T/C was 93 % of control.

And the T/C [6]?
Its T/C is 100 % of control.

And the T/C [7]?
Its T/C is 96 % of control.

For `COc1cc(N)c2c(c1N)C(=O)c1ccccc1C2=O`, which T/C (dose: 50.0 mg/kg/injection, schedule: Q04DX003 (ip), vehicle: Klucel (hydroxypropylcellulose) (HPC)) is on record?
Its T/C is 100 % of control.

What about the T/C [11] of the same molecule?
The T/C was 103 % of control.

What about the T/C [12] of the same molecule?
Its T/C is 95 % of control.

Which T/C (dose: 0.5 mg/kg/injection, schedule: Q01DX009 (ip), vehicle: saline) does the source give for `Nc1ccc2nc3ccc(=O)cc-3n(-c3ccccc3)c2c1` here?
The T/C was 109 % of control.

And the T/C (dose: 1.0 mg/kg/injection, schedule: Q01DX009 (ip), vehicle: saline)?
Its T/C is 104 % of control.

What about the T/C (dose: 2.5 mg/kg/injection, schedule: Q01DX009 (ip), vehicle: saline) of the same molecule?
Its T/C is 111 % of control.

And the T/C (dose: 5.0 mg/kg/injection, schedule: Q01DX009 (ip), vehicle: saline)?
Its T/C is 104 % of control.

And the T/C (dose: 10.0 mg/kg/injection, schedule: Q01DX009 (ip), vehicle: saline)?
Its T/C is 104 % of control.

For `CCCCC(CC)C1OC(=O)C(C)O1` (stereo not drawn), which T/C [11] is on record?
Its T/C is 98 % of control.

What about the T/C [12] of the same molecule?
Its T/C is 100 % of control.
